Experimental data as given in ChEMBL document CHEMBL3046966, “Structure and Fungicidal Activities of 2-Methoxyimino-N-methyl-2-[2-(substituted pyridyloxymethyl)phenyl]acetamide Derivatives” (1998).

Key:
Type in all cases: functional
[1] = test system: Blumeria graminis f. sp. tritici; test: Fungicidal activity against Blumeria graminis f. sp. tritici assessed as wheat powdery mildew disease control at 2 ppm foliar application for 24 hr before inoculation by preventive manner
Botrytis cinerea [2] = test: Fungicidal activity against Botryotinia fuckeliana assessed as cucumber gray mold disease control at 7.8 ppm foliar application 24 hr before inoculation by preventive manner
Podosphaera fuliginea [3] = test: Fungicidal activity against Podosphaera fuligineas assessed as cucumber […] mildew disease control at 7.8 ppm foliar application 24 hr after inoculation by curative manner
[4] = test system: Blumeria graminis f. sp. tritici; test: Fungicidal activity against Blumeria graminis f. sp. tritici assessed as wheat powdery mildew disease control at 7.8 ppm foliar application for 24 hr after inoculation by curative manner
[5] = test system: Pseudoperonospora cubensis; test: Fungicidal activity against Pseudoperonospora cubensis assessed as cucumber downy mildew disease control at 2 ppm foliar application 24 hr after inoculation by curative manner
Pyricularia oryzae [6] = test: Fungicidal activity against Magnaporthe oryzae assessed as rice blast disease control at 31.3 ppm foliar application for 24 hr before inoculation by preventive manner
[7] = test system: Pseudoperonospora cubensis; test: Fungicidal activity against Pseudoperonospora cubensis assessed as cucumber downy mildew disease control at 31.3 ppm foliar application 24 hr after inoculation by preventive manner
Botrytis cinerea [8] = test: Fungicidal activity against Botryotinia fuckeliana assessed as cucumber gray mold disease control at 7.8 ppm foliar application 24 hr after inoculation by curative manner
Pyricularia oryzae [9] = test: Fungicidal activity against Magnaporthe oryzae assessed as rice blast disease control at 31.3 ppm foliar application for 24 hr after inoculation by curative manner
Podosphaera fuliginea [10] = test: Fungicidal activity against Podosphaera fuligineas assessed as cucumber […] mildew disease control at 7.8 ppm foliar application 24 hr before inoculation by preventive manner
Pyricularia oryzae [11] = test: Fungicidal activity against Magnaporthe oryzae assessed as rice blast disease control at 7.8 ppm foliar application for 24 hr after inoculation by curative manner
Podosphaera fuliginea [12] = test: Fungicidal activity against Podosphaera fuligineas assessed as cucumber […] mildew disease control at 31.3 ppm foliar application 24 hr before inoculation by preventive manner
[13] = test system: Pseudoperonospora cubensis; test: Fungicidal activity against Pseudoperonospora cubensis assessed as cucumber downy mildew disease control at 125 ppm foliar application 24 hr after inoculation by preventive manner
Botrytis cinerea [14] = test: Fungicidal activity against Botryotinia fuckeliana assessed as cucumber gray mold disease control at 31.3 ppm foliar application 24 hr before inoculation by preventive manner
[15] = test system: Blumeria graminis f. sp. tritici; test: Fungicidal activity against Blumeria graminis f. sp. tritici assessed as wheat powdery mildew disease control at 31.3 ppm foliar application for 24 hr after inoculation by curative manner
[16] = test system: Pseudoperonospora cubensis; test: Fungicidal activity against Pseudoperonospora cubensis assessed as cucumber downy mildew disease control at 7.8 ppm foliar application 24 hr after inoculation by curative manner
Podosphaera fuliginea [17] = test: Fungicidal activity against Podosphaera fuligineas assessed as cucumber […] mildew disease control at 125 ppm foliar application 24 hr before inoculation by preventive manner
Botrytis cinerea [18] = test: Fungicidal activity against Botryotinia fuckeliana assessed as cucumber gray mold disease control at 125 ppm foliar application 24 hr before inoculation by preventive manner
Podosphaera fuliginea [19] = test: Fungicidal activity against Podosphaera fuligineas assessed as cucumber […] mildew disease control at 125 ppm foliar application 24 hr after inoculation by curative manner
Botrytis cinerea [20] = test: Fungicidal activity against Botryotinia fuckeliana assessed as cucumber gray mold disease control at 125 ppm foliar application 24 hr after inoculation by curative manner
[21] = test system: Blumeria graminis f. sp. tritici; test: Fungicidal activity against Blumeria graminis f. sp. tritici assessed as wheat powdery mildew disease control at 125 ppm foliar application for 24 hr before inoculation by preventive manner
Botrytis cinerea [22] = test: Fungicidal activity against Botryotinia fuckeliana assessed as cucumber gray mold disease control at 2 ppm foliar application 24 hr after inoculation by curative manner
[23] = test system: Blumeria graminis f. sp. tritici; test: Fungicidal activity against Blumeria graminis f. sp. tritici assessed as wheat powdery mildew disease control at 7.8 ppm foliar application for 24 hr before inoculation by preventive manner
[24] = test system: Pseudoperonospora cubensis; test: Fungicidal activity against Pseudoperonospora cubensis assessed as cucumber downy mildew disease control at 31.3 ppm foliar application 24 hr after inoculation by curative manner
[25] = test system: Blumeria graminis f. sp. tritici; test: Fungicidal activity against Blumeria graminis f. sp. tritici assessed as wheat powdery mildew disease control at 31.3 ppm foliar application for 24 hr before inoculation by preventive manner
[26] = test system: Blumeria graminis f. sp. tritici; test: Fungicidal activity against Blumeria graminis f. sp. tritici assessed as wheat powdery mildew disease control at 125 ppm foliar application for 24 hr after inoculation by curative manner
Pyricularia oryzae [27] = test: Fungicidal activity against Magnaporthe oryzae assessed as rice blast disease control at 125 ppm foliar application for 24 hr before inoculation by preventive manner
Podosphaera fuliginea [28] = test: Fungicidal activity against Podosphaera fuligineas assessed as cucumber […] mildew disease control at 31.3 ppm foliar application 24 hr after inoculation by curative manner
Pyricularia oryzae [29] = test: Fungicidal activity against Magnaporthe oryzae assessed as rice blast disease control at 125 ppm foliar application for 24 hr after inoculation by curative manner
Podosphaera fuliginea [30] = test: Fungicidal activity against Podosphaera fuligineas assessed as cucumber […] mildew disease control at 2 ppm foliar application 24 hr after inoculation by curative manner
Pyricularia oryzae [31] = test: Fungicidal activity against Magnaporthe oryzae assessed as rice blast disease control at 7.8 ppm foliar application for 24 hr before inoculation by preventive manner
Podosphaera fuliginea [32] = test: Fungicidal activity against Podosphaera fuligineas assessed as cucumber […] mildew disease control at 2 ppm foliar application 24 hr before inoculation by preventive manner
[33] = test system: Pseudoperonospora cubensis; test: Fungicidal activity against Pseudoperonospora cubensis assessed as cucumber downy mildew disease control at 125 ppm foliar application 24 hr after inoculation by curative manner

SMILES	Activity (Podosphaera fuliginea [3])	Activity [4]	Activity (Pyricularia oryzae [6])	Activity (Pyricularia oryzae [9])	Activity [13]	Activity [16]	Activity (Botrytis cinerea [18])	Activity (Botrytis cinerea [20])	Activity [21]	Activity [26]	Activity (Pyricularia oryzae [27])	other results
CNC(=O)/C(=N/OC)c1ccccc1COc1cccc(Cl)n1	90%	90%	90%	90%								Activity [1]: 90%; Activity (Botrytis cinerea [2]): 90%; Activity [5]: 90%; Activity [7]: 90%; Activity (Botrytis cinerea [8]): 90%; Activity (Podosphaera fuliginea [10]): 90%
CNC(=O)/C(=N/OC)c1ccccc1COc1cccc(Br)n1	90%		90%		90%	90%						Activity [1]: 90%; Activity (Pyricularia oryzae [11]): 90%; Activity (Podosphaera fuliginea [12]): 90%; Activity (Botrytis cinerea [14]): 90%; Activity [15]: 90%; Activity (Botrytis cinerea [8]): 90%
CNC(=O)/C(=N/OC)c1ccccc1COc1cc(C(F)(F)F)ccn1			90%	90%	<90%	90%	<90%	<90%	90%			Activity (Podosphaera fuliginea [17]): 90%; Activity (Podosphaera fuliginea [19]): 90%; Activity [15]: 90%
CNC(=O)/C(=N/OC)c1ccccc1COc1ccc(C(F)(F)F)cn1	90%	90%	90%	90%		90%						Activity (Botrytis cinerea [22]): 90%; Activity (Botrytis cinerea [2]): 90%; Activity (Podosphaera fuliginea [12]): 90%; Activity [7]: 90%; Activity [23]: 90%
CNC(=O)/C(=N/OC)c1ccccc1COc1cccc(C(F)(F)F)n1	90%	90%	90%					90%				Activity [1]: 90%; Activity (Pyricularia oryzae [11]): 90%; Activity (Botrytis cinerea [14]): 90%; Activity [5]: 90%; Activity [7]: 90%; Activity (Podosphaera fuliginea [10]): 90%
CNC(=O)/C(=N/OC)c1ccccc1COc1cccc(OC)n1	90%	90%	90%	90%	90%		90%	90%				Activity [24]: 90%; Activity [5]: 90%; Activity [25]: 90%; Activity (Podosphaera fuliginea [10]): 90%
CNC(=O)/C(=N/OC)c1ccccc1COc1cccc(SC)n1					90%	90%	90%	<90%	90%	<90%	<90%	Activity (Podosphaera fuliginea [12]): 90%; Activity (Podosphaera fuliginea [28]): 90%
CNC(=O)/C(=N/OC)c1ccccc1COc1cccc(OC(C)C)n1			90%	90%	<90%		90%	<90%	90%	90%		Activity [24]: 90%; Activity (Podosphaera fuliginea [12]): 90%; Activity (Podosphaera fuliginea [28]): 90%
CNC(=O)/C(=N/OC)c1ccccc1COc1cc(C(F)(F)F)cc(Cl)n1					<90%	90%	<90%	<90%	90%	90%	90%	Activity (Podosphaera fuliginea [17]): 90%; Activity (Podosphaera fuliginea [19]): 90%; Activity (Pyricularia oryzae [29]): <90%
CNC(=O)/C(=N/OC)c1ccccc1COc1ccc(C(F)(F)F)c(Cl)n1		90%										Activity (Pyricularia oryzae [11]): 90%; Activity (Botrytis cinerea [2]): 90%; Activity (Podosphaera fuliginea [12]): 90%; Activity [5]: 90%; Activity (Podosphaera fuliginea [30]): 90%; Activity (Pyricularia oryzae [31]): 90%; Activity [7]: 90%; Activity (Botrytis cinerea [8]): 90%; Activity [23]: 90%
CNC(=O)/C(=N/OC)c1ccccc1COc1nc(OC)ccc1C(F)(F)F					90%	90%		<90%		90%	90%	Activity (Pyricularia oryzae [29]): 90%; Activity (Botrytis cinerea [14]): 90%; Activity (Podosphaera fuliginea [32]): 90%; Activity (Podosphaera fuliginea [30]): 90%; Activity [25]: 90%
CNC(=O)/C(=N/OC)c1ccccc1COc1nc(OC(C)C)ccc1C(F)(F)F	90%		90%	90%	<90%	90%	90%	<90%				Activity [15]: 90%; Activity [23]: 90%; Activity (Podosphaera fuliginea [10]): 90%
CNC(=O)/C(=N/OC)c1ccccc1COc1ccc(C(F)(F)F)c(OC)n1		90%						90%	90%		90%	Activity (Botrytis cinerea [2]): 90%; Activity (Pyricularia oryzae [29]): 90%; Activity [5]: 90%; Activity (Podosphaera fuliginea [32]): 90%; Activity (Podosphaera fuliginea [30]): 90%; Activity [7]: 90%
CNC(=O)/C(=N/OC)c1ccccc1COc1ccc(C(F)(F)F)c(NC)n1	90%				90%	90%	90%	90%		90%	<90%	Activity (Pyricularia oryzae [29]): <90%; Activity (Podosphaera fuliginea [10]): 90%
CNC(=O)/C(=N/OC)c1ccccc1COc1nc(Cl)c(C(F)(F)F)cc1C(F)(F)F	90%	90%						90%			90%	Activity [1]: 90%; Activity [33]: <90%; Activity (Pyricularia oryzae [29]): <90%; Activity (Botrytis cinerea [14]): 90%; Activity [5]: 90%; Activity (Podosphaera fuliginea [32]): 90%
CNC(=O)/C(=N/OC)c1ccccc1COc1nc(Cl)c(Cl)c(C(F)(F)F)c1Cl								<90%	<90%	<90%	<90%	Activity (Podosphaera fuliginea [17]): 90%; Activity [33]: 90%; Activity (Podosphaera fuliginea [19]): 90%
CNC(=O)/C(=N/OC)c1ccccc1COc1cccnc1Cl									<90%	<90%	<90%	Activity (Botrytis cinerea [2]): 90%; Activity [33]: 90%; Activity (Podosphaera fuliginea [12]): 90%; Activity (Podosphaera fuliginea [28]): 90%; Activity (Botrytis cinerea [14]): 90%; Activity (Botrytis cinerea [8]): 90%
CNC(=O)/C(=N/OC)c1ccccc1COc1cc(C(F)(F)F)nc(C(F)(F)F)c1					<90%		<90%		<90%	<90%	<90%	Activity (Podosphaera fuliginea [17]): <90%; Activity [33]: 90%; Activity (Podosphaera fuliginea [19]): <90%
CNC(=O)/C(=N\OC)c1ccccc1COc1ccccn1							<90%		90%	<90%	<90%	Activity (Podosphaera fuliginea [17]): <90%; Activity [33]: <90%; Activity (Podosphaera fuliginea [19]): <90%
CNC(=O)/C(=N\OC)c1ccccc1COc1cccc(C(F)(F)F)n1			90%	90%	90%	90%	90%	<90%				Activity (Podosphaera fuliginea [17]): 90%; Activity (Podosphaera fuliginea [28]): 90%; Activity [15]: 90%; Activity [25]: 90%
CNC(=O)/C(=N/OC)c1ccccc1COc1ncccc1Cl	90%	90%	90%			90%						Activity (Botrytis cinerea [22]): 90%; Activity (Pyricularia oryzae [11]): 90%; Activity (Botrytis cinerea [14]): 90%; Activity [7]: 90%; Activity [23]: 90%; Activity (Podosphaera fuliginea [10]): 90%
